Measured values: patent US9480235B1, “Red lettuces with increased anthocyanins, polyphenols, and oxygen radical absorption capacity” (Rutgers, The State University of New Jersey, priority 2012, dated 2016)

Tests used:
Assay type in all cases: in vivo, C57Bl/6J mice
[1] = test system: diet induced obese hyperglycemic mice; assay: Experiment 2: oral glucose tolerance test after daily oral NFR-S-4 aqueous extract; conditions: positive control 250 mg/kg
Protocol: (§1) Five-week-old male C57Bl/6J mice (Jackson Labs) were housed in cages (five mice to a cage) at 25° C. with 12-h light-dark cycle. Mice were given ad libitum access to food and water and after an acclimatization period of one week, rodent diet was switched from chow (Purina, No. 5015) to a very high fat diet (VHFD) containing 60% kcal fat (D12492, Research Diets, New Brunswick, N.J.) for a at least 12 weeks to induce obesity, insulin resistance, and hyperglycemia (Surwit et al., Clin. Exp. Met., 44:645-51, 1995). Weekly food intake per cage and individual body weight measurements were determined throughout the study. All mice were introduced to intragastric feeding prior to treatment. During this time, a gavage administration of 0.2 mL of double distilled water was performed daily for 2-3 days prior to the scheduled experiments.
(§2) For all experiments, mice were randomly divided into fasting blood glucose (FBG)-balanced experimental groups. Lettuce leaves were lyophilized powdered and suspended in 66% labrasol or water for the aqueous extract and Metformin® antidiabetic drug was dissolved in water. Blood glucose levels were measured using an AlphaTrak® handheld glucometer (Abbott Labs Inc., Abbott Park, Ill.) using test strips.
(§3) In experiment 2, high fat diet-induced obese mice, animals were given daily oral administration of NFR-S-4 aqueous extract (100 or 300 mg/kg) or vehicle (water) for 28 days (n=10) (Table 6). A Metformin® antidiabetic drug group (250 mg/kg) was included as a positive control for the animal model (n=5). Aqueous extracts were prepared by a 5:1 extraction (solvent volume to fresh weight) in hot (100° C.) acidified water (pH 2 with H2SO4) to assist with anthocyanin stability during the extraction process. Mice were fasted overnight prior to an oral glucose tolerance test. For oral glucose tolerance tests, mice were given an oral glucose challenge (2 g/kg) and blood glucose levels were measured prior to glucose challenge and 30, 60, 90, 120 and 180 minutes after glucose administration (Table 6).
(§4) Statistically significant differences between were analyzed by ANOVA followed by Dunnett's multiple comparisons test and/or paired t-tests (one tail) comparing FBG levels immediately prior to treatment (0 h) and 6 hours after treatment (Table 5). A p-value <0.05 was considered statistically significant.

[2] = test system: diet induced obese hyperglycemic mice; assay: Experiment 3: fasting blood glucose after single oral S-13 lettuce
Protocol: as §1, §2
In experiment 3, mice were treated using an oral ingestion of vehicle (66% labrasol), S-13 lettuce (100, 300 or 450 mg/kg), green Romaine lettuce (450 mg/kg, commercially available), or Metformin® antidiabetic drug (300 mg/kg) (n=4-5 Following a 4 h fasting period, FBG was measured immediately prior to treatment and 6 h post treatment (Table 7).
as §4

[3] = test system: diet induced obese hyperglycemic mice; assay: Experiment 4: oral glucose tolerance test 2 h after oral S-13 lettuce; conditions: 300 mg/kg oral 2 h before test
Protocol: as §1, §2, §3
In experiment 4, mice were treated with S-13 lettuce (100 mg/kg), vehicle (66% labrasol), or Metformin® antidiabetic drug (300 mg/kg) by oral administration (n=8-10). After 2 h, mice were given an oral glucose tolerance test as described above (Table 8).
as §4

[4] = test system: diet induced obese hyperglycemic mice; assay: Experiment 1: fasting blood glucose after single oral NFR-S-4 lettuce; conditions: for FBG: mean +/- SD
Protocol: as §1, §2
In experiment 1, following a 4 hour fasting period, FBG was measured immediately prior to treatment and 6 hours post treatment. […]
as §4

[5] = 6 h post treatment, 300 mg/kg oral

CN(C)C(=N)N=C(N)N [Metformin]
FBG, oral glucose tolerance test ([1]; 0 min, glucose 2 g/kg): 181 ± 26 mg/dL
FBG, oral glucose tolerance test ([1]; 30 min): 298 ± 52 mg/dL
FBG, oral glucose tolerance test ([1]; 60 min): 244 ± 19 mg/dL
FBG, oral glucose tolerance test ([1]; 90 min): 247 ± 32 mg/dL
FBG, oral glucose tolerance test ([1]; 120 min): 249 ± 35 mg/dL
Area under the curve, oral glucose tolerance test [1]: 30153
FBG ([2]; 0 (immediately prior to treatment), 4 h fast, 300 mg/kg oral group, mean +/- SD): 214 ± 20 mg/dL
% Decrease in FBG ([2]; 0 to 6 h, 300 mg/kg oral): 31 +/− 19%
FBG [2, 5]: 146 ± 34 mg/dL
FBG, oral glucose tolerance test ([3]; 0 min, glucose 2 g/kg): 206 ± 45 mg/dL
Area under the curve, oral glucose tolerance test [3]: 40683
FBG, oral glucose tolerance test ([3]; 30 min): 261 ± 51 mg/dL
FBG, oral glucose tolerance test ([3]; 60 min): 263 ± 69 mg/dL
FBG, oral glucose tolerance test ([3]; 90 min): 257 ± 62 mg/dL
FBG, oral glucose tolerance test ([3]; 120 min): 196 ± 31 mg/dL
FBG, oral glucose tolerance test ([3]; 180 min): 176 ± 30 mg/dL
FBG ([4]; 0 h (immediately prior to treatment), 4 h fast, 300 mg/kg oral group): 222 ± 19 mg/dL
% Decrease in FBG ([4]; 0 h to 6 h, 300 mg/kg oral): 39 +/− 14%
FBG [4, 5]: 133 ± 25 mg/dL
